Test results: patent US10294202B2, “Pyrrolidinones as herbicides” (FMC Corporation, priority 2013, dated 2019)

Tests used:
pigweed = test: Test A pre-/postemergence herbicide test; type: in vivo, Amaranthus retroflexus; details: for Plant response rating, Pigweed: 0 to 100 scale
Summary of the method: (§1)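 Scoring was visual, relative to untreated controls, on a 0–100 scale after about 10 greenhouse days. Preemergence treatment used a directed soil spray over seeded loam/sand; postemergence treatment targeted one- to two-leaf plants of 2–10 cm.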

wheat = test: Test A pre-/postemergence herbicide test; type: in vivo, Triticum aestivum; details: Postemergence; for Plant response rating, Wheat: 125 g ai/ha, 0 to 100 scale, 0 is no effect, 100 is complete control; for Wheat plant response rating (0 to 100 scale, 0 is no effect, 100 is complete control): 500 g ai/ha
Summary of the method: as §1

corn [1] = test: Test A pre-/postemergence herbicide test; type: in vivo, Zea mays; details: Postemergence; for Plant response rating, Corn: 125 g ai/ha, 0 to 100 scale, 0 is no effect, 100 is complete control; for Corn plant response rating (0 to 100 scale, 0 is no effect, 100 is complete control): 500 g ai/ha
Summary of the method: as §1

rice = test: Test B flooded paddy test; type: in vivo, Oryza sativa; details: 500 g ai/ha, Flood; scale of 0 to 100 where 0 is no effect and 100 is complete control
Summary of the method: (§2)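 First, plants reach the 2-leaf stage; next, pots are flooded to 3 cm and compound is delivered into the water; finally, after 13 to 15 greenhouse days at constant depth, injury is graded visually from 0 to 100 against controls.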

ducksalad = test: Test B flooded paddy test; type: in vivo, Heteranthera limosa; details: 500 g ai/ha, Flood; scale of 0 to 100 where 0 is no effect and 100 is complete control
Summary of the method: as §2

ryegrass, Italian = test: Test C pre-/postemergence herbicide test; type: in vivo, Lolium multiflorum
Summary of the method: (§3)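 Response scores range from 0, meaning no effect, to 100, meaning complete control, assigned visually by comparison with controls roughly two weeks (13 to 15 days) after spraying. Applications were made preemergence to seeded loam–sand soil and postemergence to 1- to 4-leaf plants.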

corn [2] = test: Test C pre-/postemergence herbicide test; type: in vivo, Zea mays
Summary of the method: as §3

johnsongrass = test: Test C pre-/postemergence herbicide test; type: in vivo, Sorghum halepense
Summary of the method: as §3

lambsquarters = test: Test C pre-/postemergence herbicide test; type: in vivo, Chenopodium album
Summary of the method: as §3

morningglory = test: Test C pre-/postemergence herbicide test; type: in vivo, Ipomoea coccinea
Summary of the method: as §3

nutsedge, yellow = test: Test C pre-/postemergence herbicide test; type: in vivo, Cyperus esculentus
Summary of the method: as §3

ragweed = test: Test C pre-/postemergence herbicide test; type: in vivo, Ambrosia elatior
Summary of the method: as §3

[3] = 125 g ai/ha, visual rating, 0 no effect, 100 complete control, approximately 10 days, preemergence
[4] = Postemergence, 125 g ai/ha, 0 is no effect, 100 is complete control
[5] = preemergence, 500 g ai/ha, 0 is no effect and 100 is complete control
[6] = Postemergence, 31 g ai/ha, scale 0 to 100 (0 no effect, 100 complete control)
[7] = Postemergence, 62 g ai/ha, scale 0 (no effect) to 100 (complete control)
[8] = Postemergence, 125 g ai/ha, scale 0 to 100 (0 no effect, 100 complete control)
[9] = Postemergence, 250 g ai/ha, scale 0 to 100 (0 no effect, 100 complete control)
[10] = Preemergence, 31 g ai/ha, scale 0 to 100, 0 is no effect and 100 is complete control
[11] = Preemergence, 62 g ai/ha, scale 0 to 100 (0 no effect, 100 complete control)
[12] = Preemergence, 125 g ai/ha, scale 0 to 100 (0 no effect, 100 complete control)

## O=C1NCC(c2cccc(OC(F)F)c2)C1C(=O)Nc1cccc(F)c1F (centres unmarked) [Compound 224]
pigweed; [3]
  Plant response rating, Pigweed: 80
pigweed; [4]
  Plant response rating, Pigweed: 60
pigweed; Postemergence, 500 g ai/ha
  Pigweed plant response rating (0 to 100 scale, 0 is no effect, 100 is complete control): 80
pigweed; [5]
  Plant response rating, Pigweed: 80
wheat
  Plant response rating, Wheat: 50
  Wheat plant response rating (0 to 100 scale, 0 is no effect, 100 is complete control): 60
Corn [1]
  Plant response rating, Corn: 60
  Corn plant response rating (0 to 100 scale, 0 is no effect, 100 is complete control): 80
rice
  Plant response rating, Rice: 0
ducksalad
  Plant response rating, Ducksalad: 100
ryegrass, Italian; [6]
  Plant response rating, Ryegrass, Italian: 0
ryegrass, Italian; [7]
  Plant response rating, Ryegrass, Italian: 0
ryegrass, Italian; [8]
  Plant response rating, Ryegrass, Italian: 5
ryegrass, Italian; [9]
  Plant response rating, Ryegrass, Italian: 5
ryegrass, Italian; [10]
  Ryegrass, Italian plant response rating: 0
ryegrass, Italian; [11]
  Ryegrass, Italian plant response rating: 0
ryegrass, Italian; [12]
  Plant response rating, Ryegrass, Italian: 0
ryegrass, Italian; Preemergence, 250 g ai/ha
  Plant response rating (scale of 0 to 100), Ryegrass, Italian: 15
Corn [2]; [6]
  Plant response rating, Corn: 0
Corn [2]; [7]
  Plant response rating, Corn: 0
Corn [2]; [8]
  Plant response rating, Corn: 10
Corn [2]; [9]
  Plant response rating, Corn: 10
Corn [2]; [10]
  Corn plant response rating: 10
Corn [2]; [11]
  Corn plant response rating: 0
Corn [2]; [12]
  Plant response rating, Corn: 85
Corn [2]; Preemergence, 250 g ai/ha
  Plant response rating (scale of 0 to 100), Corn: 85
johnsongrass; [6]
  Plant response rating, Johnsongrass: 0
johnsongrass; [7]
  Plant response rating, Johnsongrass: 0
johnsongrass; [8]
  Plant response rating, Johnsongrass: 15
johnsongrass; [9]
  Plant response rating, Johnsongrass: 25
johnsongrass; [10]
  Johnsongrass plant response rating: 0
johnsongrass; [11]
  Johnsongrass plant response rating: 35
johnsongrass; [12]
  Plant response rating, Johnsongrass: 75
johnsongrass; Preemergence, 250 g ai/ha
  Plant response rating (scale of 0 to 100), Johnsongrass: 85
lambsquarters; [6]
  Plant response rating, Lambsquarters: 5
lambsquarters; [7]
  Plant response rating, Lambsquarters: 50
lambsquarters; [8]
  Plant response rating, Lambsquarters: 70
lambsquarters; [9]
  Plant response rating, Lambsquarters: 60
lambsquarters; [10]
  Lambsquarters plant response rating: 55
lambsquarters; [11]
  Lambsquarters plant response rating: 65
lambsquarters; [12]
  Plant response rating, Lambsquarters: 95
lambsquarters; Preemergence, 250 g ai/ha
  Plant response rating (scale of 0 to 100), Lambsquarters: 95
morningglory; [6]
  Plant response rating, Morningglory: 5
morningglory; [7]
  Plant response rating, Morningglory: 5
morningglory; [8]
  Plant response rating, Morningglory: 35
morningglory; [9]
  Plant response rating, Morningglory: 35
morningglory; [10]
  Morningglory plant response rating: 5
morningglory; [11]
  Morningglory plant response rating: 25
morningglory; [12]
  Plant response rating, Morningglory: 5
morningglory; Preemergence, 250 g ai/ha
  Plant response rating (scale of 0 to 100), Morningglory: 30
nutsedge, yellow; [6]
  Plant response rating, Nutsedge, Yellow: 0
nutsedge, yellow; [7]
  Plant response rating, Nutsedge, Yellow: 0
nutsedge, yellow; [8]
  Plant response rating, Nutsedge, Yellow: 0
nutsedge, yellow; [9]
  Plant response rating, Nutsedge, Yellow: 0
nutsedge, yellow; [10]
  Nutsedge, Yellow plant response rating: 0
nutsedge, yellow; [11]
  Nutsedge, Yellow plant response rating: 10
nutsedge, yellow; [12]
  Plant response rating, Nutsedge, Yellow: 0
nutsedge, yellow; Preemergence, 250 g ai/ha
  Plant response rating (scale of 0 to 100), Nutsedge, Yellow: 0
ragweed; [6]
  Plant response rating, Ragweed: 20
ragweed; [7]
  Plant response rating, Ragweed: 65
ragweed; [8]
  Plant response rating, Ragweed: 45
ragweed; [9]
  Plant response rating, Ragweed: 80
ragweed; [10]
  Ragweed plant response rating: 10
ragweed; [11]
  Ragweed plant response rating: 40
ragweed; [12]
  Plant response rating, Ragweed: 100
ragweed; Preemergence, 250 g ai/ha
  Plant response rating (scale of 0 to 100), Ragweed: 100

## O=C1NCC(c2ccc(C(F)(F)F)cc2)C1C(=O)Nc1ccccc1F (centres unmarked) [Compound 231]
pigweed; [3]
  Plant response rating, Pigweed: 70
pigweed; [4]
  Plant response rating, Pigweed: 0
pigweed; Postemergence, 500 g ai/ha
  Pigweed plant response rating (0 to 100 scale, 0 is no effect, 100 is complete control): 40
pigweed; [5]
  Plant response rating, Pigweed: 70
wheat
  Plant response rating, Wheat: 20
  Wheat plant response rating (0 to 100 scale, 0 is no effect, 100 is complete control): 30
Corn [1]
  Plant response rating, Corn: 30
  Corn plant response rating (0 to 100 scale, 0 is no effect, 100 is complete control): 40
rice
  Plant response rating, Rice: 0
ducksalad
  Plant response rating, Ducksalad: 0
ryegrass, Italian; [10]
  Ryegrass, Italian plant response rating: 0
ryegrass, Italian; [11]
  Ryegrass, Italian plant response rating: 10
ryegrass, Italian; [12]
  Plant response rating, Ryegrass, Italian: 15
ryegrass, Italian; Preemergence, 250 g ai/ha
  Plant response rating (scale of 0 to 100), Ryegrass, Italian: 15
Corn [2]; [10]
  Corn plant response rating: 0
Corn [2]; [11]
  Corn plant response rating: 5
Corn [2]; [12]
  Plant response rating, Corn: 70
Corn [2]; Preemergence, 250 g ai/ha
  Plant response rating (scale of 0 to 100), Corn: 85
johnsongrass; [10]
  Johnsongrass plant response rating: 0
johnsongrass; [11]
  Johnsongrass plant response rating: 10
johnsongrass; [12]
  Plant response rating, Johnsongrass: 45
johnsongrass; Preemergence, 250 g ai/ha
  Plant response rating (scale of 0 to 100), Johnsongrass: 60
lambsquarters; [10]
  Lambsquarters plant response rating: 40
lambsquarters; [11]
  Lambsquarters plant response rating: 85
lambsquarters; [12]
  Plant response rating, Lambsquarters: 85
lambsquarters; Preemergence, 250 g ai/ha
  Plant response rating (scale of 0 to 100), Lambsquarters: 100
morningglory; [10]
  Morningglory plant response rating: 0
morningglory; [11]
  Morningglory plant response rating: 0
morningglory; [12]
  Plant response rating, Morningglory: 0
morningglory; Preemergence, 250 g ai/ha
  Plant response rating (scale of 0 to 100), Morningglory: 20
nutsedge, yellow; [10]
  Nutsedge, Yellow plant response rating: 0
nutsedge, yellow; [11]
  Nutsedge, Yellow plant response rating: 0
nutsedge, yellow; [12]
  Plant response rating, Nutsedge, Yellow: 0
nutsedge, yellow; Preemergence, 250 g ai/ha
  Plant response rating (scale of 0 to 100), Nutsedge, Yellow: 0
ragweed; [10]
  Ragweed plant response rating: 80
ragweed; [11]
  Ragweed plant response rating: 100
ragweed; [12]
  Plant response rating, Ragweed: 80
ragweed; Preemergence, 250 g ai/ha
  Plant response rating (scale of 0 to 100), Ragweed: 85
